Measurements published in ChEMBL document CHEMBL1201862, “PubChem BioAssay data set” (2004).
Calls of active or inactive are those of the source.

Experiments:
[1] = biological target: Estrogen receptor beta (Homo sapiens, UniProt Q92731); test: ERβ–SRC-3 coactivator interaction inhibitors, confirmation, orthogonal assay, biochemical, ELISA, streptavidin-HRP readout (AID 1060)
[2] = biological target: T1, Aminopeptidase N (Plasmodium falciparum FcB1/Columbia, UniProt O96935); test: P. falciparum M1AAP inhibitors, biochemical, fluorogenic H-Leu-NHMec substrate, 1536-well (AID 1445); design: species or system Plasmodium falciparum 3D7, 3D7
T1 sequence (O96935 whole entry): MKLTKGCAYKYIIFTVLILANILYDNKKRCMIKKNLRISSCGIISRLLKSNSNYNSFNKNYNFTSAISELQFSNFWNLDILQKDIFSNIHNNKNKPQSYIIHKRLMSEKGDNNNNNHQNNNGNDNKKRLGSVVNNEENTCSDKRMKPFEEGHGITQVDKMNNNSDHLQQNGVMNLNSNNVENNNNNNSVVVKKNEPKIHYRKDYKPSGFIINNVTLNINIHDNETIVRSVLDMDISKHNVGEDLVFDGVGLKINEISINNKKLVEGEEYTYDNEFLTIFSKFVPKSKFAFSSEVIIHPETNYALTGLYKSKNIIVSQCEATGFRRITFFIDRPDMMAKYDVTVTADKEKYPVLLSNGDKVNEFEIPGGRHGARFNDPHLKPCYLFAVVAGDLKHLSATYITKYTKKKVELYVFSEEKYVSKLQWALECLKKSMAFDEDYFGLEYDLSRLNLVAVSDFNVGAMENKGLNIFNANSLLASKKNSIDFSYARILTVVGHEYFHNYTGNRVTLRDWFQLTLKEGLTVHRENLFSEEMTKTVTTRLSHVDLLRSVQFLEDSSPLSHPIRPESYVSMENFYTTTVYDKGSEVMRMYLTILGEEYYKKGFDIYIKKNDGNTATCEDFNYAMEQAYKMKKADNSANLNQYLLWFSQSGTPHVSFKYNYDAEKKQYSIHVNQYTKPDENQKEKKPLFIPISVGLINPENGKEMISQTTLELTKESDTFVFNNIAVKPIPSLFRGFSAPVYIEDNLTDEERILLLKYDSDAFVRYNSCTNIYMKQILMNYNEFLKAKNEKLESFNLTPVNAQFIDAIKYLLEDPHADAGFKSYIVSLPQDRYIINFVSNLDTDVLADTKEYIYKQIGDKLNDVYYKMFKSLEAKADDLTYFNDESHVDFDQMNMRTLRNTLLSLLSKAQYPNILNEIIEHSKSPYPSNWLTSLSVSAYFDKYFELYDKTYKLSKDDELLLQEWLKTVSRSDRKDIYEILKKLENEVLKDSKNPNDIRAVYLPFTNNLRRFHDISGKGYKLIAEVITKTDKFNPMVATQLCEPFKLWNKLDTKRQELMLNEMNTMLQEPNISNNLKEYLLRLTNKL

[3] = biological target: T2, Mucolipin-3 (Homo sapiens, UniProt Q8TDD5); test: Dose response cell-based high-throughput screening assay for agonists of the transient receptor potential channel ML3 (TRPML3). [Related pubchem assays: 1526, 1424, 1448 ]; assay type: functional
T2 sequence (Q8TDD5 whole entry): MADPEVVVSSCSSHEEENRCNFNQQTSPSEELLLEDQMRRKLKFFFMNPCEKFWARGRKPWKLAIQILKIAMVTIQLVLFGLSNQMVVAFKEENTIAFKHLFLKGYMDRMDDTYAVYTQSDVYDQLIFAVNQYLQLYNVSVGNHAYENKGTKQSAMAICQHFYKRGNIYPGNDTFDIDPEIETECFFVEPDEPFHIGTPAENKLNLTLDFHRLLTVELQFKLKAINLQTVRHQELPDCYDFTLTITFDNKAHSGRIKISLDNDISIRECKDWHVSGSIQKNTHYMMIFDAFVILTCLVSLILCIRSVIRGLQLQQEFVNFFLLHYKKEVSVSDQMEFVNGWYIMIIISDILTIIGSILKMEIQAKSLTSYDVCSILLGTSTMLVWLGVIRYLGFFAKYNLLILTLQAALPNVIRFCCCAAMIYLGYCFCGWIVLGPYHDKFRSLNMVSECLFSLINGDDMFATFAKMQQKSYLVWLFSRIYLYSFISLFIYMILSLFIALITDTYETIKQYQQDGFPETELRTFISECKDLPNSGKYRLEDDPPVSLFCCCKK

[4] = biological target: Ion channel NompC (Danio rerio, UniProt Q7T1G6); test: Fluorescence counterscreen assay for TRPML3 agonists: dose response cell-based high-throughput screening assay to identify agonists of the transient receptor potential channel N1 (TRPN1). [Related pubchem assays: 1526, 1424, 1448 ]; assay type: functional
[5] = luciferase reporter signal reduction – luminescence, H4-C neuroglioblastoma cells, dose response (AID 2458); assay type: functional, cell-based;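 note: H4 neuroglioblastoma cells stably carrying a luciferase reporter gene fusion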
[6] = cells; assay type: functional, cell-based
[7] = system: HEK293; test: cells; assay type: functional, cell-based; conditions: Homo sapiens
[8] = inhibitors of SNCA 5'UTR-driven reporter translation, confirmation, H4 neuroglioma cells, luminescence (AID 1988); assay type: functional, cell-based
[9] = Luminescence Cell-Based Dose Response HTS to Identify Inhibitors of 5'UTR Stem-Loop Driven Prion Protein mRNA Translation in H4 Neuroglioblastoma Cells. [Related pubchem assays: 1827 (Project Summary), 1813 (Primary HTS)]; assay type: functional
[10] = system: HEK293; test: cells; assay type: functional, cell-based; conditions: Homo sapiens; remark: listed apart in the source
[11] = system: HEK293; test: NOD1 signaling inhibitors, primary screen, cell-based, luminescence, uHTS (AID 1578); assay type: functional; conditions: Homo sapiens
[12] = inhibitors of firefly luciferase expression or activity, dose response, H4 neuroglioma cells, luminescence (AID 1990); assay type: functional, cell-based
[13] = biological target: Nucleotide-binding oligomerization domain-containing protein 2 (Homo sapiens, UniProt Q9HC29); test: NOD2 signaling inhibitors, cell-based, luminescence, uHTS, HEK293 (AID 1566); assay type: functional
[14] = system: HEK293; test: cells; assay type: functional, cell-based; conditions: Homo sapiens; remark: listed apart in the source
[15] = system: HEK293; test: NOD2 signaling inhibitors in MDP-stimulated cells, cell-based, uHTS, luminescence (AID 2001); assay type: functional; conditions: Homo sapiens
[16] = inhibitors of SNCA 5'UTR-driven translation, confirmation, luminescence, H4 neuroglioblastoma cells, dose confirmation (AID 2454); assay type: functional, cell-based;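 note: H4 neuroglioblastoma cells carrying an alpha-synuclein 5'UTR luciferase reporter; potency for inhibition of the luciferase signal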
[17] = cells
[18] = inhibitors of intracellular T. cruzi replication, confirmation, NIH3T3 host cells, beta-gal luminescence (AID 2044); assay type: functional, cell-based;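 note: intracellular parasites grown in NIH/3T3 mouse fibroblasts as host cells; luminescent beta-galactosidase reporter signal from transgenic T. cruzi replicating inside host cells; inhibitors lower the luminescence signal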
[19] = biological target: Large T antigen (Simian virus 40, UniProt P03070); assay type: functional, Betapolyomavirus macacae;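 note: Confirmatory-stage PubChem screen for compounds that inhibit SV40 T antigen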
[20] = C. albicans growth with fluconazole, confirmation, fluorescence, retest (AID 2467); assay type: functional, cell-based
[21] = cytotoxicity toward NIH3T3 fibroblasts, dose response, counter-screen, cell-based, ATP luminescence, mouse fibroblasts (AID 2010); assay type: functional;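 note: cells exposed to compound for about 90 hours before reading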
[22] = NIH-3T3 fibroblast cytotoxicity, dose response, cytotoxicity control, cell-based, fluorescence, Alamar Blue, secondary assay (AID 2327); assay type: functional;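 note: NIH-3T3 mouse fibroblasts cultured with fluconazole at 8 µg/mL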
[23] = biological target: T3, Short transient receptor potential channel 4 (Mus musculus, UniProt Q9QUQ5); test: mouse TRPC4 channel inhibitors, dose response, cell-based, HEK293 TRPC4/mu-opioid, Fluo-4 calcium (AID 434942); assay type: functional;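 note: potency of inhibitors blocking the TRPC4 calcium response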
T3 sequence (Q9QUQ5 whole entry): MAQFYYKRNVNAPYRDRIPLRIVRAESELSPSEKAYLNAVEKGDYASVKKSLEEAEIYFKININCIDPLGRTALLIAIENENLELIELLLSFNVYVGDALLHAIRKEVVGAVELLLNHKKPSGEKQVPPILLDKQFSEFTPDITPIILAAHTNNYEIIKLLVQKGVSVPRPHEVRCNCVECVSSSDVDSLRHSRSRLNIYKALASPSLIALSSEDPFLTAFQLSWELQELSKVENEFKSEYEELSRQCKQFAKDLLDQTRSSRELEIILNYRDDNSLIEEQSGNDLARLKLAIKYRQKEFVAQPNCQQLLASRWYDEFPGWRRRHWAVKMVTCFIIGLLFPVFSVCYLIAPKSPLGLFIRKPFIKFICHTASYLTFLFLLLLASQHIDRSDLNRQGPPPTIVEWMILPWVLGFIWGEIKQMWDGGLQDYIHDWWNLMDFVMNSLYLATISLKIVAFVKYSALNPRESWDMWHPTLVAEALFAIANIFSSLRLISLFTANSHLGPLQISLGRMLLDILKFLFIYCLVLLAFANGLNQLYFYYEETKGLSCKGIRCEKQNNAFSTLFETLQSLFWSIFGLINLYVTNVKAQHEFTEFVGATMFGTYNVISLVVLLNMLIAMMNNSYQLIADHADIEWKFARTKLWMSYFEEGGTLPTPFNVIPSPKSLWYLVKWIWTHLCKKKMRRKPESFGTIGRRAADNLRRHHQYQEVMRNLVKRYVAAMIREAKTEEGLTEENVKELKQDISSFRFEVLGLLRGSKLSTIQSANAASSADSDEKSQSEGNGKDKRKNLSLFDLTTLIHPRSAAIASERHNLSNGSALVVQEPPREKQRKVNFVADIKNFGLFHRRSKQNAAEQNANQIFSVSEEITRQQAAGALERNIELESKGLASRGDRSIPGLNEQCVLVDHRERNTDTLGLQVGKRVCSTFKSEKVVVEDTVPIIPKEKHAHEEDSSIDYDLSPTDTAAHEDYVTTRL

[24] = MC4R antagonists, dose response, counter-screen for LGR2 antagonist project, cell-based, plate reader, cherry pick (AID 743444); assay type: functional;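 note: transfected HEK 293 cells stimulated with alpha-MSH peptide; potency of inhibitors of the alpha-MSH evoked signal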
[25] = HepG2 cell cytotoxicity, dose response, cytotoxicity control, plate reader, cherry-pick, antagonist series (AID 743416); assay type: functional, cell-based
[26] = LGR2 antagonists, dose response, cell-based, HEK293, CRE-luciferase reporter, cherry pick, set 2 (AID 743343); assay type: functional;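 note: transfected cells were stimulated with diluted bursicon conditioned medium after compound addition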
[27] = system: INS1; test: beta cell apoptosis inhibitors, cytokine rescue, dose response, luminescence, retest (AID 449756); assay type: functional, cell-based; conditions: Rattus norvegicus;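 note: cell death triggered by IL-1 beta plus TNF-alpha plus IFN-gamma mixture; protective hits raise ATP signal compared with cytokine alone wells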
[28] = A549 cell cytotoxicity, dose response, cytotoxicity control, plate reader, cherry-pick, antagonist series (AID 743412); assay type: functional, cell-based
[29] = biological target: T4, Protein Tat (Human immunodeficiency virus type 1 group M subtype B (isolate HXB2)(HIV-1), UniProt P04608); assay type: functional;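 note: tat binding to TAR RNA read out by fluorescence polarization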
T4 sequence (P04608 whole entry): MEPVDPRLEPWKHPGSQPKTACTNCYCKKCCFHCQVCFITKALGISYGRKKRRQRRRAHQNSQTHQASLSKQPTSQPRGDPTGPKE

Chain of Ion channel NompC (Q7T1G6 whole entry, the tested form may be a part): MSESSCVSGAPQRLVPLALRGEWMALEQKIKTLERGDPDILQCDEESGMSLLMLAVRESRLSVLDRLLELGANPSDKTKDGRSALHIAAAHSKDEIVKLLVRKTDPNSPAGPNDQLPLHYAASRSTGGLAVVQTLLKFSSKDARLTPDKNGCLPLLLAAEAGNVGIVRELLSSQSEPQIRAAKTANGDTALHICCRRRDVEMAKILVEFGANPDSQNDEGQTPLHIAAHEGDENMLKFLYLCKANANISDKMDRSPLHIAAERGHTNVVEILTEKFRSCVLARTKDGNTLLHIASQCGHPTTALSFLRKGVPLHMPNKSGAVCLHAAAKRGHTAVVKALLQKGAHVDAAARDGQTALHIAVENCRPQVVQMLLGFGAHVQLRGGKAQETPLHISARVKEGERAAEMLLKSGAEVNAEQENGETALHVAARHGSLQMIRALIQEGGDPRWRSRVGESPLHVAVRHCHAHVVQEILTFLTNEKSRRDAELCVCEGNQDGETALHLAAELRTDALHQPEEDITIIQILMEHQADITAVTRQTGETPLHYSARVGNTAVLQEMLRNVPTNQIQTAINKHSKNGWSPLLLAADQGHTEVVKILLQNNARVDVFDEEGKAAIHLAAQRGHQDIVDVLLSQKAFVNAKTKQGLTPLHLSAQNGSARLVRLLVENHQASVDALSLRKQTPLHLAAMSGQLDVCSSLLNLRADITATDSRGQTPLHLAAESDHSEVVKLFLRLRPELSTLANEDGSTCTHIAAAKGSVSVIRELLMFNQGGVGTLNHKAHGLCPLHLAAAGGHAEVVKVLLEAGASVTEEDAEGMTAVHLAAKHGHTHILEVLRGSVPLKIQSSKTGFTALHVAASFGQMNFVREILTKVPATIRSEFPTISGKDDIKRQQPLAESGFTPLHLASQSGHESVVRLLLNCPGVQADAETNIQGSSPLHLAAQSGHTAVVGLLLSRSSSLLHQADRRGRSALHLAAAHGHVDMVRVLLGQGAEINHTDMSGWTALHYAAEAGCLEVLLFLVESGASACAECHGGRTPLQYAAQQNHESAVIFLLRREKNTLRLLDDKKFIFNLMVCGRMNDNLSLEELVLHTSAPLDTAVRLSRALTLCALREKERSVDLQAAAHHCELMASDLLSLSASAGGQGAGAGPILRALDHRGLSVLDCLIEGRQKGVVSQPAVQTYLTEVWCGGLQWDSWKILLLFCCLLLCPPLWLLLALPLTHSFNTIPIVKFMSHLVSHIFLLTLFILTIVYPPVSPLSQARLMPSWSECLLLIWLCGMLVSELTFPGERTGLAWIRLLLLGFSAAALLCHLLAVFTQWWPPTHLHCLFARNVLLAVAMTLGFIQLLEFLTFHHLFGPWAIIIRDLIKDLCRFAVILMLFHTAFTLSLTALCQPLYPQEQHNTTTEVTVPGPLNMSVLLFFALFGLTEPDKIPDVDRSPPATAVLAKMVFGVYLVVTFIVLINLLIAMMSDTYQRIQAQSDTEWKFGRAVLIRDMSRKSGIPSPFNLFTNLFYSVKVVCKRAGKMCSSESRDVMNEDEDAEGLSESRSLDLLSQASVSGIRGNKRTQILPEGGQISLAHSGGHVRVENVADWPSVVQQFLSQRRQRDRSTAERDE
Chain of Nucleotide-binding oligomerization domain-containing protein 2 (Q9HC29 whole entry, the tested form may be a part): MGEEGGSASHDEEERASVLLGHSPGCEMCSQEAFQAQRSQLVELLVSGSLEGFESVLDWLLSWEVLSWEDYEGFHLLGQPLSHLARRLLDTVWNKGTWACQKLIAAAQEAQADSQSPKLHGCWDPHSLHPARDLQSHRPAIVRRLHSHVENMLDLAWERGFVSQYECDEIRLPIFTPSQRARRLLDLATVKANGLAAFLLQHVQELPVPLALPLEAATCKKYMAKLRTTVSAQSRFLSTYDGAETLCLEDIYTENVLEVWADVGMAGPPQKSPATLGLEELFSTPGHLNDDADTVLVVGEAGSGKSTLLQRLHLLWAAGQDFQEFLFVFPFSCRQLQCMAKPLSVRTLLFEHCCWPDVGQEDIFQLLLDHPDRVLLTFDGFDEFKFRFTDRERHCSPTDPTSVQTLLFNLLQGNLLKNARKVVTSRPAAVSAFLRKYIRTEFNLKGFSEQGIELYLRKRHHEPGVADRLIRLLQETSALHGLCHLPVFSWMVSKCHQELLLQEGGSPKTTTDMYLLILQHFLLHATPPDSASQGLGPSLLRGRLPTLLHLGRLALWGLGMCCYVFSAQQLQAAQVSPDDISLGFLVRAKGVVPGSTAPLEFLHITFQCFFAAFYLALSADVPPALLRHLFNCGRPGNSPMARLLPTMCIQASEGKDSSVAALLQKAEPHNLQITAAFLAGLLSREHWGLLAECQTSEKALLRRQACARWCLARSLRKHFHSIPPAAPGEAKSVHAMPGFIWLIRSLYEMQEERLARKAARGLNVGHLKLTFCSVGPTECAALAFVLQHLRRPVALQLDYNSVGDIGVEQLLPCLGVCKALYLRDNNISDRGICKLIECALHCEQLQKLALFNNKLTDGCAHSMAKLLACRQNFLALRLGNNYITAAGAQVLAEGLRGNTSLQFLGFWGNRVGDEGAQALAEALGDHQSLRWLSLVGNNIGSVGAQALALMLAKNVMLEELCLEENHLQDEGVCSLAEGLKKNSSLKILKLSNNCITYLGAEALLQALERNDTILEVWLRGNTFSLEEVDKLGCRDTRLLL
Chain of Large T antigen (P03070 whole entry): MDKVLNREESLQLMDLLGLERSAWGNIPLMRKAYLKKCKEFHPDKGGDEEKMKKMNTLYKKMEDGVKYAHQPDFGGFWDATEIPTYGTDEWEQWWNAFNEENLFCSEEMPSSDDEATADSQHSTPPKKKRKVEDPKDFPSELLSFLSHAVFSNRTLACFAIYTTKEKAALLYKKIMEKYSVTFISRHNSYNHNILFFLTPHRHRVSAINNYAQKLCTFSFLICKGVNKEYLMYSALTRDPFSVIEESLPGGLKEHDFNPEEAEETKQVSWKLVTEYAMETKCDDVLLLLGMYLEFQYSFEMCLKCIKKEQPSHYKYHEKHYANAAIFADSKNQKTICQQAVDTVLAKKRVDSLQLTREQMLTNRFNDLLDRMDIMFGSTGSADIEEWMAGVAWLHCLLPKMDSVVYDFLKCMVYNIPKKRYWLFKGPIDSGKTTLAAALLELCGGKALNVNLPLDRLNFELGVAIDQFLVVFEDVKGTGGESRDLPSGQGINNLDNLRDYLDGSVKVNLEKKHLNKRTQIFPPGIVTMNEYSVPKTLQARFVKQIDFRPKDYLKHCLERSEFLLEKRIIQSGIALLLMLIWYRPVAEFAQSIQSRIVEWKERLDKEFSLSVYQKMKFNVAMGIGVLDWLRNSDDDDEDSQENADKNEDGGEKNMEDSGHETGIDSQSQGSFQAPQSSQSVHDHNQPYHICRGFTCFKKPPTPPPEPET
Chain of Estrogen receptor beta (Q92731 whole entry): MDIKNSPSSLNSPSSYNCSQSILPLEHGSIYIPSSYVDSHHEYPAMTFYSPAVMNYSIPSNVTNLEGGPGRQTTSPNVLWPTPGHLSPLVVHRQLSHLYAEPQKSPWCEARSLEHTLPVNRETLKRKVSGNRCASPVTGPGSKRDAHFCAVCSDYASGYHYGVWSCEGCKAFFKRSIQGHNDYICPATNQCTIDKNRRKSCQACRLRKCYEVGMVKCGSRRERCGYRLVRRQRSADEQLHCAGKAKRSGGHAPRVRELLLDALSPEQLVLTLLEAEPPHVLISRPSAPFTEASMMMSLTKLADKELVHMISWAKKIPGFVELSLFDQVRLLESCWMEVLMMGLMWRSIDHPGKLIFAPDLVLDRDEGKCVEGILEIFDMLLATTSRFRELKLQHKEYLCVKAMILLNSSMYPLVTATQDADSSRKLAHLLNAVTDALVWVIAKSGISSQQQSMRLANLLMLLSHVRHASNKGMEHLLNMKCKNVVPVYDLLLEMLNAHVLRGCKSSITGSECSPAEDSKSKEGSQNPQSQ

SMILES: CN1CCN(CC(=O)Nc2sc3c(c2C#N)CCCC3)CC1
- IC50 [1]: 15 µM (not active)

SMILES: O=C(NN1C(=O)c2ccccc2NC1c1ccco1)c1ccccc1 (centres undefined)
- IC50 [2]: 61.3 µM (active)

SMILES: O=S(=O)(c1ccccc1)C1(S(=O)(=O)c2ccccc2)CCCC1
- EC50 [3]: 5.62 µM (active)
- EC50 [4]: > 29.9 µM (not active)

SMILES: O=C(C1=C(O)C(=O)N(c2nccs2)C1c1ccccc1)c1ccc2c(c1)OCCO2 (centres undefined)
- EC50 [5]: 4.2 µM (active)
- EC50 [6]: 1.11 µM (active)
- IC50 [7]: > 20 µM (inactive)
- EC50 [8]: 7.17 µM (active)
- EC50 [9]: < 100 nM (active)
- IC50 [10]: > 20 µM (inactive)
- EC50 [11]: 11.5 µM (active)
- EC50 [12]: 0.146 µM (active)
- EC50 [13]: 5.45 µM (active)
- IC50 [14]: > 20 µM (inactive)
- IC50 [15]: 18.6 µM (inactive)
- EC50 [16]: 1.93 µM (active)

SMILES: CCCC[n+]1c2ccccc2cc2ccccc21
- EC50 [17]: 41 nM (active)
- EC50 [18]: < 100 nM (active)
- IC50 [19]: 42.4 µM (active)
- EC50 [20]: 604 nM (active)
- EC50 [21]: > 60 µM (not active)
- EC50 [22]: > 150 µM (inactive)
- EC50 [23]: 4.22 µM (active)

SMILES: O=C(CN1C(=O)c2ccccc2S1(=O)=O)c1ccc(F)cc1
- EC50 [5]: 1.12 µM (active)
- AC50 [24]: 3.02 µM (active)
- EC50 [6]: 1.87 µM (active)
- AC50 [25]: > 52 µM (inactive)
- EC50 [8]: 5.89 µM (active)
- EC50 [9]: < 100 nM (active)
- AC50 [26]: 2.75 µM (active)
- AC50 [27]: > 260 µM (inactive)
- EC50 [12]: 11.4 µM (active)
- AC50 [28]: > 52 µM (inactive)
- EC50 [16]: 2.32 µM (active)

SMILES: Cc1cc(C(C)c2ccccc2)c(O)c(CN2CCOCC2)c1C (centres undefined)
- IC50 [29]: > 100 µM (active)
- EC50 [3]: 5.07 µM (active)
- EC50 [4]: > 29.9 µM (not active)

SMILES: COc1ccc(N(C)S(=O)(=O)c2ccc(C)cc2)c([N+](=O)[O-])c1
- EC50 [3]: 3.13 µM (active)
- EC50 [4]: > 29.9 µM (not active)
